The inhibition is the percentage by which the read-out fell short of the control. The Ki is the dissociation constant of the complex between target and ligand, obtained from inhibition or displacement. Low values mean tighter binding, high ones weaker binding.

SMILES strings stand for the structures.

The values that follow come from ChEMBL document CHEMBL1148617, “Design, synthesis, and structure-activity relationships of 1-,3-,8-, and 9-substituted-9-deazaxanthines at the human A2B adenosine receptor” (J Med Chem, 2006).

The target in assay [1] is T1, Adenosine receptor A2b (Homo sapiens) (UniProt P29275).
T1 sequence (whole entry): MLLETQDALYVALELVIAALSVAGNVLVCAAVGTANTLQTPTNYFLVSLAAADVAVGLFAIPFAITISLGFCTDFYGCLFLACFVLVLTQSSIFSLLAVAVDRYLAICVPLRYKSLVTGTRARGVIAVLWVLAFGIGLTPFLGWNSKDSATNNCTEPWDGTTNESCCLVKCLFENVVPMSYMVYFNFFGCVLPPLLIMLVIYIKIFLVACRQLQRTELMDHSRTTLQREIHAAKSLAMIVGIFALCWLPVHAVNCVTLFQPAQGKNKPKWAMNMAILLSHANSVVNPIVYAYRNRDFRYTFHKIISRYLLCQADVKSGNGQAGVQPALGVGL
As to the kind of experiment: Displacement of [3H]DPCPX from recombinant human adenosine A2B receptor expressed in HEK293 cells at 0.1 uM. The class given is cell-based. For orientation: In a radioligand displacement assay an active substance lowers the binding of a labelled ligand.

The target of assay [2] is T2, Adenosine receptor A2a (Homo sapiens, UniProt P29274).
T2 sequence (P29274 whole entry): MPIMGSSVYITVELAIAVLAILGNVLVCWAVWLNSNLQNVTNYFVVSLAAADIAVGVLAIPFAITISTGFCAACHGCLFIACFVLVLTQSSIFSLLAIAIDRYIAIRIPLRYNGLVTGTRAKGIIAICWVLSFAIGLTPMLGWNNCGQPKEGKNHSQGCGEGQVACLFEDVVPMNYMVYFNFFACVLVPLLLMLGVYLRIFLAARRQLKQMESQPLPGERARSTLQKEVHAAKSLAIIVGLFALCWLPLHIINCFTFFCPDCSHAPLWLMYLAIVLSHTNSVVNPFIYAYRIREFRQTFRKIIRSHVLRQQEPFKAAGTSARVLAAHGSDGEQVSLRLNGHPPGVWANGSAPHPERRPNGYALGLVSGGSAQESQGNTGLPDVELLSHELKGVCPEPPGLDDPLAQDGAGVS
Description: Binding affinity to recombinant human adenosine A2A receptor
Another assay addresses T3, Adenosine receptor A2b (Homo sapiens, UniProt P29275).
T3 sequence (P29275 whole entry): T1 sequence (whole entry)

For assay [3], the target named is T1, Adenosine receptor A2b (Homo sapiens). As to the kind of experiment: Displacement of [3H]DPCPX from recombinant human adenosine A2B receptor expressed in HEK293 cells at 0.01 uM.
Assay [4] addresses T2, Adenosine receptor A2a. As to the kind of experiment: Displacement of [3H]ZM-241385 from recombinant human adenosine A2A receptor expressed in HeLa cells at 0.1 uM.

For `COc1cc(-c2cc3c([nH]2)c(=O)n(C)c(=O)n3C)ccc1OCC(=O)Nc1ccc(F)cc1`, the inhibition in assay [1] was found to be 45%; in assay [3], 10%; on Adenosine receptor A2a [4], 35%. Also, the Ki on Adenosine receptor A2a [2] was 45.7 nM; at Adenosine receptor A2b it was 145 nM.

With `O=C(COc1ccc(-c2cc3c([nH]2)c(=O)n(CC2CC2)c(=O)n3CC2CC2)cc1)Nc1ccccc1`, the inhibition in assay [1] was determined as 96%; in assay [3] it was 57%; on Adenosine receptor A2a [4], 93%. For the same compound, the Ki at Adenosine receptor A2a [2] is 15.5 nM; on Adenosine receptor A2b, 4.68 nM.

Turning to `CCCn1c(=O)c2[nH]c(-c3ccc(OCC(=O)NCc4ccccc4)cc3)cc2n(CCC)c1=O`, the inhibition worked out at 95% in assay [1], 78% in assay [3] and 38% at Adenosine receptor A2a [4]. Besides, the Ki on Adenosine receptor A2a [2] was 89.1 nM; at Adenosine receptor A2b, 3.16 nM.

Consider `Cn1c(=O)c2[nH]c(-c3ccc(OCC(=O)Nc4ccc([N+](=O)[O-])cc4)cc3)cc2n(C)c1=O`, for which the inhibition in assay [1] amounted to 82%; in assay [3] it was 52%; on Adenosine receptor A2a [4] it was 30%. In addition, the Ki at Adenosine receptor A2a [2] was 81.3 nM; at Adenosine receptor A2b it was 6.92 nM.

Consider `CCCn1c(=O)c2[nH]c(-c3ccc(OCC(=O)NCc4ccc(F)cc4)cc3)c(Cl)c2n(CCC)c1=O`, for which the results for the inhibition (in assay [1]; in assay [3]; at Adenosine receptor A2a [4]) were 25%, 8% and 44%, respectively. Besides, the values for the Ki on Adenosine receptor A2a [2] and on Adenosine receptor A2b were 49 nM and 174 nM, respectively.

As to `CCCn1c(=O)c2[nH]c(-c3ccc(OCC(=O)Nc4ccc(C(=O)OCC)cc4)cc3)cc2n(CCC)c1=O`, the inhibition in assay [1] is 57%; in assay [3], 6%; on Adenosine receptor A2a [4] it was 30%. Also, the Ki at Adenosine receptor A2a [2] was 100 nM; at Adenosine receptor A2b, 56.2 nM.

Take `CCCn1c(=O)c2[nH]c(-c3ccc(OCC(=O)Nc4ccc(-c5ccccc5)cc4)cc3)cc2n(CCC)c1=O`: the inhibition in assay [1] was 80%; in assay [3], 40%; at Adenosine receptor A2a [4], 36%. Also, the Ki is 69.2 nM at Adenosine receptor A2a [2] and 16.2 nM on Adenosine receptor A2b.

On to `Cn1c(=O)c2[nH]c(-c3ccc(OCC(=O)NCc4ccco4)cc3)cc2n(C)c1=O`, for which the results for the inhibition (in assay [1]; in assay [3]; on Adenosine receptor A2a [4]) were 52%, 10% and 13%, respectively. Besides, the Ki at Adenosine receptor A2a [2] is 316 nM; on Adenosine receptor A2b, 70.8 nM.

On to `CCCn1c(=O)c2[nH]c(-c3ccc(OCC(=O)Nc4ccc(Br)cc4)cc3)c(Cl)c2n(CCC)c1=O`, for which the inhibition in assay [1] amounted to 73%; in assay [3], 15%; at Adenosine receptor A2a [4], 37%. Also, the inhibition constant (Ki) was 126 nM on Adenosine receptor A2a [2] and 24.5 nM on Adenosine receptor A2b.

As for `CCCn1c(=O)c2[nH]c(-c3ccc(OCC(=O)Nc4ccc(OCc5ccccc5)cc4)cc3)cc2n(CCC)c1=O`, the inhibition is 76% in assay [1], 49% in assay [3] and 60% on Adenosine receptor A2a [4]. Also, the Ki at Adenosine receptor A2a [2] was 18.6 nM; on Adenosine receptor A2b it was 8.91 nM.

Consider `CCCn1c(=O)c2[nH]c(-c3ccc(OCC(=O)Nc4ccc(OC)nc4)cc3)cc2n(CCC)c1=O`, for which the inhibition amounted to 84% in assay [1], 41% in assay [3] and 50% on Adenosine receptor A2a [4]. Also, the Ki is 107 nM at Adenosine receptor A2a [2] and 10.7 nM at Adenosine receptor A2b.

As to `CCCn1c(=O)c2[nH]c(-c3ccc(OCC(=O)NCc4ccccc4)cc3)c(Cl)c2n(CCC)c1=O`, the inhibition stood at 47% in assay [1], 10% in assay [3] and 43% at Adenosine receptor A2a [4]. Also, the Ki on Adenosine receptor A2a [2] was 60.3 nM; on Adenosine receptor A2b, 83.2 nM.

`Cn1c(=O)c2[nH]c(-c3ccc(OCC(=O)NC4CCCC4)cc3)cc2n(C)c1=O`: the inhibition in assay [1] turned out to be 57%; in assay [3], 20%; on Adenosine receptor A2a [4], 8%. Moreover, the values for the inhibitory constant (Ki) at Adenosine receptor A2a [2] and on Adenosine receptor A2b were 692 nM and 79.4 nM, respectively.

With `CCCn1c(=O)c2[nH]c(-c3ccc(OCC(=O)Nc4ccc(NC(C)=O)cc4)cc3)cc2n(CCC)c1=O`, the values for the inhibition (in assay [1]; in assay [3]; at Adenosine receptor A2a [4]) were 70%, 23% and 40%, respectively. Further, the Ki at Adenosine receptor A2a [2] was 63.1 nM; on Adenosine receptor A2b, 13.8 nM.

As to `CCCn1c(=O)c2[nH]c(-c3ccc(OCC(=O)Nc4ccc(CS(=O)(=O)N5CCCC5)cc4)cc3)cc2n(CCC)c1=O`, the inhibition turned out to be 70% in assay [1], 58% in assay [3] and 31% at Adenosine receptor A2a [4]. Moreover, the Ki at Adenosine receptor A2a [2] was 52.5 nM; on Adenosine receptor A2b, 7.76 nM.

Consider `CCCn1c(=O)c2[nH]c(-c3ccc(OC(C)C(=O)NCc4ccc(Cl)cc4)cc3)cc2n(CCC)c1=O` (stereo not given), for which the inhibition turned out to be 94% in assay [1], 55% in assay [3] and 57% at Adenosine receptor A2a [4]. Further, the Ki was 46.8 nM at Adenosine receptor A2a [2] and 4.07 nM on Adenosine receptor A2b.

For the compound `CCCn1c(=O)c2[nH]c(-c3ccc(OC(C)(C)C(=O)Nc4ccc(F)cc4)cc3)cc2n(CCC)c1=O`, the inhibition in assay [1] came to 97%; in assay [3] it was 50%; on Adenosine receptor A2a [4], 32%. Further, the results for the inhibition constant (Ki) at Adenosine receptor A2a [2] and on Adenosine receptor A2b were 17 nM and 8.91 nM, respectively.

Take `CCCn1c(=O)c2[nH]c(-c3ccc(OCC(=O)Nc4ccc(F)cc4)cc3)cc2n(C)c1=O`: the inhibition in assay [1] came to 94%; in assay [3], 57%; on Adenosine receptor A2a [4] it was 47%. Further, the figures for the Ki at Adenosine receptor A2a [2] and on Adenosine receptor A2b were 66.1 nM and 5.62 nM, respectively.

For `Cn1c(=O)c2[nH]c(-c3ccc(OCC(=O)Nc4ccc(CCN)cc4)cc3)cc2n(C)c1=O`, the inhibition is 34% in assay [1], 7% in assay [3] and 38% at Adenosine receptor A2a [4]. Further, the results for the Ki at Adenosine receptor A2a [2] and on Adenosine receptor A2b were 166 nM and 186 nM, respectively.

On to `CCCn1c(=O)c2[nH]c(-c3ccc(OCC(=O)c4c(NC(=O)O)n(C)c(=O)n(C)c4=O)cc3)cc2n(CCC)c1=O`, for which the values for the inhibition (in assay [1]; in assay [3]; at Adenosine receptor A2a [4]) were 59%, 24% and 61%, respectively. Moreover, the Ki on Adenosine receptor A2a [2] was 79.4 nM; on Adenosine receptor A2b it was 100 nM.

In the case of `CCCn1c(=O)c2[nH]c(-c3ccc(OC(C)(C)C(=O)Nc4ccccc4)cc3)cc2n(CCC)c1=O`, the inhibition in assay [1] is 93%; in assay [3], 51%; on Adenosine receptor A2a [4], 57%. The Ki is 53.7 nM on Adenosine receptor A2a [2] and 7.94 nM on Adenosine receptor A2b.

Take `CCCn1c(=O)c2[nH]c(-c3ccc(OCC(=O)Nc4ccccn4)cc3)cc2n(CCC)c1=O`: the inhibition in assay [1] came to 83%; in assay [3] it was 33%; at Adenosine receptor A2a [4], 34%. In addition, the Ki is 309 nM on Adenosine receptor A2a [2] and 26.9 nM on Adenosine receptor A2b.

On to `CCCn1c(=O)c2[nH]c(-c3ccc(OCC(=O)Nc4cc(OC)nc(OC)n4)cc3)cc2n(CCC)c1=O`, for which the inhibition was 80% in assay [1], 30% in assay [3] and 41% at Adenosine receptor A2a [4]. Moreover, the figures for the Ki on Adenosine receptor A2a [2] and on Adenosine receptor A2b were 89.1 nM and 11 nM, respectively.

In the case of `Cn1c(=O)c2[nH]c(-c3ccc(OCC(=O)NCc4ccc(F)cc4)cc3)cc2n(C)c1=O`, the inhibition worked out at 95% in assay [1], 36% in assay [3] and 56% on Adenosine receptor A2a [4]. For the same compound, the figures for the Ki on Adenosine receptor A2a [2] and at Adenosine receptor A2b were 43.7 nM and 17 nM, respectively.

Regarding `CCCn1c(=O)c2[nH]c(-c3ccc(OCC(=O)Nc4ccc(C(N)=O)cc4)cc3)cc2n(CCC)c1=O`, the inhibition in assay [1] is 78%; in assay [3], 16%; on Adenosine receptor A2a [4], 43%. In addition, the results for the Ki on Adenosine receptor A2a [2] and on Adenosine receptor A2b were 24 nM and 25.1 nM, respectively.

As for `COc1cccc(CNC(=O)COc2ccc(-c3cc4c([nH]3)c(=O)n(C)c(=O)n4C)cc2)c1`, the inhibition in assay [1] was determined as 61%; in assay [3], 15%; at Adenosine receptor A2a [4] it was 11%. The Ki is 331 nM at Adenosine receptor A2a [2] and 51.3 nM on Adenosine receptor A2b.

`CCn1c(=O)c2[nH]c(-c3ccc(OCC(=O)Nc4ccccc4)cc3)cc2n(CC)c1=O`: the inhibition turned out to be 91% in assay [1], 45% in assay [3] and 22% on Adenosine receptor A2a [4]. Further, the values for the Ki on Adenosine receptor A2a [2] and at Adenosine receptor A2b were 186 nM and 7.76 nM, respectively.

Regarding `CCCn1c(=O)c2[nH]c(-c3ccc(N(C=O)CC(=O)Nc4ccc(Br)cc4)cc3)cc2n(CCC)c1=O`, the values for the inhibition (in assay [1]; in assay [3]; at Adenosine receptor A2a [4]) were 93%, 48% and 90%, respectively. Moreover, the Ki is 35.5 nM at Adenosine receptor A2a [2] and 7.76 nM on Adenosine receptor A2b.

With `CCCn1c(=O)c2[nH]c(-c3ccc(OCC(=O)Nc4ccc(Cl)cc4)cc3)cc2n(CCC)c1=O`, the inhibition in assay [1] came out at 95%; in assay [3], 58%; on Adenosine receptor A2a [4], 61%. In addition, the Ki at Adenosine receptor A2a [2] is 31.6 nM; on Adenosine receptor A2b it was 3.16 nM.

As to `CCN(Cc1ccccc1)C(=O)COc1ccc(-c2cc3c([nH]2)c(=O)n(C)c(=O)n3C)cc1`, the values for the inhibition (in assay [1]; in assay [3]; at Adenosine receptor A2a [4]) were 59%, 15% and 17%, respectively. The results for the Ki on Adenosine receptor A2a [2] and at Adenosine receptor A2b were 891 nM and 42.7 nM, respectively.

In the case of `COc1cc(-c2cc3c([nH]2)c(=O)n(C)c(=O)n3C)ccc1OCC(=O)Nc1ccc(Br)cc1`, the inhibition in assay [1] amounted to 78%; in assay [3], 15%; at Adenosine receptor A2a [4], 32%. The figures for the Ki on Adenosine receptor A2a [2] and on Adenosine receptor A2b were 81.3 nM and 38.9 nM, respectively.
